Series [1] can be described thus: Molar enthalpy of transition or fusion. Particulars: DSC.
For series [2] the following is noted: DTA; for Normal melting temperature: Crystal 1.

The source of these data is the NIST ThermoML archive (doi:10.1016/j.fluid.2013.07.061).

Structures are written as SMILES. Numbers after ± are expanded uncertainties.

For `CCC[N+]1(C)CCCCC1.F[P-](F)(F)(F)(F)F` [1-methyl-1-propylpiperidinium hexafluorophosphate], the “Molar enthalpy of transition or fusion” value stood at 1.23 ± 0.0454 kcal/mol in series [1] (Crystal 1), 0.664 ± 0.0335 kcal/mol in series [1] (Crystal 2) and 1.89 ± 0.1 kcal/mol in series [1] (Crystal 3). In addition, the Normal melting temperature in series [2] was determined as 95.1 ± 0.4 °C. Further, the Triple point temperature came to 350.96 ± 0.39 K in series [2] (Crystal 2) and 310.6 ± 0.73 K in series [2] (Crystal 3).
As for `CCC[N+]1(C)CCCC1.F[P-](F)(F)(F)(F)F` [1-methyl-1-propylpyrrolidinium hexafluorophosphate], the results for the “Molar enthalpy of transition or fusion” value in series [1] (Crystal 1), in series [1] (Crystal 2) and in series [1] (Crystal 3) were 0.875 ± 0.0765 kcal/mol, 0.55 ± 0.0478 kcal/mol and 0.66 ± 0.0502 kcal/mol, respectively. In addition, the Normal melting temperature in series [2] was determined as 110.5 ± 1.4 °C. In addition, the Triple point temperature in series [2] (Crystal 2) is 360.88 ± 1.7 K; in series [2] (Crystal 3) it was 348.58 ± 1.3 K.
In the case of `CCCC[N+](CCCC)(CCCC)CCCC.F[P-](F)(F)(F)(F)F` [tetrabutylammonium hexafluorophosphate], the “Molar enthalpy of transition or fusion” value in series [1] (Crystal 1) came to 3.92 ± 0.153 kcal/mol; in series [1] (Crystal 2), 0.492 ± 0.55 kcal/mol; in series [1] (Crystal 3), 0.502 ± 0.0526 kcal/mol. The Normal melting temperature in series [2] came to 251.1 ± 0.9 °C. Further, the Triple point temperature was 360.7 ± 0.7 K in series [2] (Crystal 2) and 303.95 ± 0.39 K in series [2] (Crystal 3).
On to `CCCC[P+](CCCC)(CCCC)CCCC.F[P-](F)(F)(F)(F)F` [tetrabutylphosphonium hexafluorophosphate], for which the “Molar enthalpy of transition or fusion” value in series [1] (Crystal 1) was found to be 3.51 ± 0.0884 kcal/mol; in series [1] (Crystal 3), 0.433 ± 0.0335 kcal/mol. In addition, in series [2], the Normal melting temperature is 225.5 ± 0.4 °C. In series [2] (Crystal 3), the Triple point temperature is reported as 265.37 ± 0.39 K.
